Experimental data from patent US8158655B2, “Sulfonamide derivatives” (Hoffmann-La Roche Inc., priority 2007, dated 2012).
Read-outs that look alike come from different tables or passages of the source.

Target: T1, Chymase purified from human skin mast cells (Homo sapiens, UniProt P23946)
T1 construct: Chymase purified from human skin mast cells was obtained from Calbiochem; purchased Calbiochem (Merck Biosciences, San Diego, Calif., USA); host or cells: human skin mast cells (natural source)
T1 sequence (P23946 22-247): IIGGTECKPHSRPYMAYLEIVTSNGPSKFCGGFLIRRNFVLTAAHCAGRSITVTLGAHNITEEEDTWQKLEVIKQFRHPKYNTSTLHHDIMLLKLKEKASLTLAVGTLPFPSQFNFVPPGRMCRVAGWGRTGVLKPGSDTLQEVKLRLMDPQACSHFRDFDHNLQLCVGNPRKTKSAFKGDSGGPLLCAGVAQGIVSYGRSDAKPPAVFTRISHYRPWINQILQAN
Assay: chymase peptide substrate assay (AAPF-AMC fluorescence)
Format: biochemical
Protocol: The peptide was synthesized with a purity of 95% from Bachem, Bubendorf, Switzerland). Chymase purified from human skin mast cells was obtained from Calbiochem (Merck Biosciences, San Diego, Calif., USA). The assay buffer was 0.15 M NaCl, 0.05M, Tris HCl, 0.05% CHAPS (3-[(3-Cholamidopropyl)-dimethylammonio]-1-propane sulphonate), 0.1 mg/ml Heparin (Heparin sodium, Sigma, porcine intestinal mucosa), 0.02 mM AAPF-substrate, 1 nM Chymase at pH 7.4. The assay was performed in 96-well plates (Packard Optiplate), with a 0.05 ml volume at room temperature. Chymase activity was indicated by the initial rate of increase in fluorescence at 340/440 nm (excitation/emission) from free 7-amino-4-methylcoumarin released from the substrate. Inhibition of the activity by inhibitory compounds was read after 30 min pre-incubation with the chymase at room temperature in assay buffer without AAPF-substrate. The assay was then started by addition of the indicated concentration of AAPF-substrate.

[1] = 0.02 mM AAPF-substrate, 1 nM Chymase, pH 7.4, room temperature, 30 min pre-incubation, read-out: IC50

SMILES | IC50 [nM] | IC50 [1] [nM]
Cc1c(S(=O)(=O)Nc2ccc(-c3ccncc3)cc2C(F)(F)F)sc2ccc(F)cc12 [Example 2, 5-Fluoro-3-methyl-benzo[b]thiophene-2-sulfonic acid(4-pyridin-4-yl-2-trifluoromethyl-phenyl)-amide] | 35 | 
CCc1cc(-c2ccncc2)ccc1NS(=O)(=O)c1sc2ccc(F)cc2c1C [Example 16, 5-Fluoro-3-methyl-benzo[b]thiophene-2-sulfonic acid(2-ethyl-4-pyridin-4-yl-phenyl)-amide] |  | 106
Cc1c(S(=O)(=O)Nc2ccc(C3CCNCC3)cc2S(C)(=O)=O)sc2ccc(F)cc12 [Example 21, 5-Fluoro-3-methyl-benzo[b]thiophene-2-sulfonic acid(2-methanesulfonyl-4-piperidin-4-yl-phenyl)-amide] |  | 3
